Results published in ChEMBL document CHEMBL4138105, “LL-37-derived short antimicrobial peptide KR-12-a5 and its d-amino acid substituted analogs with cell selectivity, anti-biofilm activity, synergistic effect with conventional antibiotics, and anti-inflammatory activity” (Eur J Med Chem, 2017).
≈ marks a conversion by molar mass, not a printed value. Calls of active or inactive are those of the source. The calls are words filed in the database; no cut-off is given here.

Tests used:
[1] = tested on: Staphylococcus aureus; test: Potency index, ratio of LL-37 MIC to compound MIC for methicillin resistant Staphylococcus aureus CCARM 3090; assay type: functional
[2] = tested on: Escherichia coli; test: Antibacterial activity against Escherichia coli KCTC 1682 after 24 hrs; assay type: functional; conditions: KCTC 1682, 24 h
[3] = tested on: NIH3T3; test: Cytotoxicity against mouse NIH/3T3 cells up to 128 uM after 48 hrs by MTT assay; assay type: cell-based; conditions: nih3t3, 48 h
[4] = tested on: Pseudomonas aeruginosa; test: Potency index, ratio of melittin MIC to compound MIC for multidrug-resistant Pseudomonas aeruginosa CCARM 2095; assay type: functional
[5] = tested on: Staphylococcus aureus; test: Potency index, ratio of LL-37 MIC to compound MIC for methicillin resistant Staphylococcus aureus CCARM 3095; assay type: functional
[6] = tested on: Staphylococcus aureus; test: Antibacterial activity against Staphylococcus aureus KCTC 1621 after 24 hrs; assay type: functional; conditions: KCTC 1621, 24 h
[7] = tested on: RAW264.7; test: Anti-inflammatory activity in mouse RAW264.7 cells assessed as reduction in LPS-induced nitric oxide production at 10 to 20 uM after 24 hrs by Griess assay; assay type: functional, cell-based
[8] = tested on: Lipid bilayer; test: Binding affinity to EYPE/EYPG small unilamellar vesicles assessed as intrinsic tryptophan acrylamide quenching constant by fluorescence assay (reference value: 5.95 to 7.56 /M)
[9] = tested on: Enterococcus faecium; test: Potency index, ratio of melittin MIC to compound MIC for Vancomycin-resistant Enterococcus faecium ATCC 51559; assay type: functional
[10] = tested on: Pseudomonas aeruginosa; test: Antibacterial activity against Pseudomonas aeruginosa KCTC 1637 after 24 hrs; assay type: functional; conditions: KCTC 1637, 24 h
[11] = tested on: Staphylococcus aureus; test: Potency index, ratio of melittin MIC to compound MIC for methicillin resistant Staphylococcus aureus CCARM 3090; assay type: functional
[12] = tested on: RAW264.7; test: Anti-inflammatory activity in mouse RAW264.7 cells assessed as reduction in LPS-induced IL-6 mRNA expression at 10 uM after 3 hrs by RT-PCR analysis; assay type: functional, cell-based
[13] = tested on: Bacillus subtilis; test: Antibacterial activity against Bacillus subtilis KCTC 3068 after 24 hrs; assay type: functional; conditions: KCTC 3068, 24 h
[14] = tested on: Staphylococcus aureus; test: Antibacterial activity against Staphylococcus aureus KCTC 1621 in presence of 2.5 mM CaCl2 after 24 hrs; assay type: functional; conditions: KCTC 1621, 24 h
[15] = tested on: RAW264.7; test: Anti-inflammatory activity in mouse RAW264.7 cells assessed as reduction in LPS-induced TNF-alpha mRNA expression at 10 uM after 3 hrs by RT-PCR analysis; assay type: functional, cell-based
[16] = tested on: Pseudomonas aeruginosa; test: Potency index, ratio of LL-37 MBIC90 to compound MBIC90 for antibiofilm activity against multidrug-resistant Pseudomonas aeruginosa CCARM 2095; assay type: functional
[17] = tested on: Staphylococcus aureus; test: Antibacterial activity against Staphylococcus aureus KCTC 1621 in presence of 20% human serum after 24 hrs; assay type: functional; conditions: KCTC 1621, 24 h
[18] = tested on: Escherichia coli; test: Antibacterial activity against Escherichia coli KCTC 1682 in presence of 4.5 mM KCl after 24 hrs; assay type: functional; conditions: KCTC 1682, 24 h
[19] = tested on: Staphylococcus aureus; test: Antibacterial activity against Staphylococcus aureus KCTC 1621 in presence of 4.5 mM KCl after 24 hrs; assay type: functional; conditions: KCTC 1621, 24 h
[20] = tested on: Escherichia coli; test: Antibacterial activity against Escherichia coli KCTC 1682 in presence of 6 uM NH4Cl after 24 hrs; assay type: functional; conditions: KCTC 1682, 24 h
[21] = tested on: Pseudomonas aeruginosa; test: Potency index, ratio of LL-37 MIC to compound MIC for multidrug-resistant Pseudomonas aeruginosa CCARM 2109; assay type: functional
[22] = tested on: Erythrocyte; test: Hemolytic activity in human RBC after 1 hr; assay type: ADME, cell-based
[23] = tested on: Escherichia coli; test: Antibacterial activity against Escherichia coli KCTC 1682 in presence of 150 mM NaCl after 24 hrs; assay type: functional; conditions: KCTC 1682, 24 h
[24] = tested on: Pseudomonas aeruginosa; test: Synergistic antibacterial activity against multidrug-resistant Pseudomonas aeruginosa CCARM 2095 after 72 hrs in presence of ciprofloxacin by chequerboard assay; assay type: functional
[25] = tested on: Staphylococcus aureus; test: Ratio of MIC for Staphylococcus aureus KCTC 1621 in presence of 20% human serum to MIC for Escherichia coli KCTC 1682 in presence of 20% human serum; assay type: functional
[26] = tested on: RAW264.7; test: Anti-inflammatory activity in mouse RAW264.7 cells assessed as reduction in LPS-induced IL-6 production at 10 to 20 uM preincubated for 1 hr followed by LPS stimulation measured after 6 hrs by ELISA; assay type: functional, cell-based
[27] = tested on: RAW264.7; test: Cytotoxicity against mouse RAW264.7 cells up to 128 uM after 48 hrs by MTT assay; assay type: cell-based; conditions: raw264.7, 48 h
[28] = tested on: RAW264.7; test: Anti-inflammatory activity in mouse RAW264.7 cells assessed as reduction in LPS-induced MCP-1 production at 10 to 20 uM preincubated for 1 hr followed by LPS stimulation measured after 6 hrs by ELISA; assay type: functional, cell-based
[29] = tested on: Staphylococcus aureus; test: Potency index, ratio of melittin MIC to compound MIC for methicillin resistant Staphylococcus aureus CCARM 3089; assay type: functional
[30] = tested on: Pseudomonas aeruginosa; test: Synergistic antibacterial activity against multidrug-resistant Pseudomonas aeruginosa CCARM 2095 after 72 hrs in presence of oxacillin by chequerboard assay; assay type: functional
[31] = tested on: Escherichia coli; test: Antibacterial activity against Escherichia coli KCTC 1682 in presence of 2.5 mM CaCl2 after 24 hrs; assay type: functional; conditions: KCTC 1682, 24 h
[32] = tested on: Staphylococcus aureus; test: Antibacterial activity against Staphylococcus aureus KCTC 1621 in presence of 1 mM MgCl2 after 24 hrs; assay type: functional; conditions: KCTC 1621, 24 h
[33] = tested on: Staphylococcus aureus; test: Antibacterial activity against methicillin resistant Staphylococcus aureus CCARM 3090 after 24 hrs; assay type: functional; conditions: CCARM 3090, 24 h
[34] = tested on: Pseudomonas aeruginosa; test: Antibacterial activity against multidrug-resistant Pseudomonas aeruginosa CCARM 2109 after 24 hrs; assay type: functional; conditions: CCARM 2109, 24 h
[35] = tested on: Pseudomonas aeruginosa; test: Potency index, ratio of melittin MIC to compound MIC for multidrug-resistant Pseudomonas aeruginosa CCARM 2109; assay type: functional
[36] = tested on: Staphylococcus aureus; test: Antibacterial activity against Staphylococcus aureus KCTC 1621 assessed as cell membrane disruption at 2 times MIC within 4 mins by Sytox Green dye based fluorescence spectrophotometer assay; assay type: functional, organism-based
[37] = tested on: Staphylococcus aureus; test: Antibacterial activity against methicillin resistant Staphylococcus aureus CCARM 3095 after 24 hrs; assay type: functional; conditions: CCARM 3095, 24 h
[38] = tested on: Staphylococcus epidermidis; test: Antibacterial activity against Staphylococcus epidermidis KCTC 1917 after 24 hrs; assay type: functional; conditions: KCTC 1917, 24 h
[39] = tested on: RAW264.7; test: Anti-inflammatory activity in mouse RAW264.7 cells assessed as reduction in LPS-induced MCP-1 mRNA expression at 10 uM after 3 hrs by RT-PCR analysis; assay type: functional, cell-based
[40] = tested on: Escherichia coli; test: Antibacterial activity against Escherichia coli KCTC 1682 in presence of 20% human serum after 24 hrs; assay type: functional; conditions: KCTC 1682, 24 h
[41] = tested on: Staphylococcus aureus; test: Antibacterial activity against Staphylococcus aureus KCTC 1621 assessed as cytoplasmic membrane depolarization at 2 times MIC by disC3-5 dye based fluorescence assay; assay type: functional, organism-based
[42] = tested on: Enterococcus faecium; test: Antibacterial activity against Vancomycin-resistant Enterococcus faecium ATCC 51559 after 24 hrs; assay type: functional; conditions: ATCC 51559, 24 h
[43] = tested on: Staphylococcus aureus; test: Potency index, ratio of melittin MIC to compound MIC for methicillin resistant Staphylococcus aureus CCARM 3095; assay type: functional
[44] = tested on: RAW264.7; test: Anti-inflammatory activity in mouse RAW264.7 cells assessed as reduction in LPS-induced TNF-alpha production at 10 to 20 uM preincubated for 1 hr followed by LPS stimulation measured after 6 hrs by ELISA; assay type: functional, cell-based

In the case of `CC[C@H](C)[C@H](NC(=O)[C@H](CCCNC(=N)N)NC(=O)[C@@H](N)CCCCN)C(=O)N[C@H](C(=O)N[C@@H](CCCCN)C(=O)N[C@@H](CC(C)C)C(=O)N[C@H](CC(C)C)C(=O)N[C@@H](CC(C)C)C(=O)N[C@@H](CCCCN)C(=O)N[C@@H](Cc1c[nH]c2ccccc12)C(=O)N[C@@H](CC(C)C)C(=O)N[C@@H](CCCNC(=N)N)C(N)=O)C(C)C`, the Ratio [1] was 2 - 4, the MIC [2] was 4 µM (≈ 6.26 µg/mL) and the Activity [3] was “Non-Toxic”. For the same molecule, the Ratio [4] was 2 - 4, the Ratio [5] was 2 - 4 and the MIC [6] was 2 µM (≈ 3.13 µg/mL). The Activity [7] was “Active”, the KSV [8] was 1.01 M⁻¹ and the Ratio [9] was 2 - 4. The MIC [10] was 8 µM (≈ 12.5 µg/mL), the Ratio [11] was 2 - 4 and the Activity [12] was “Active”. For the same molecule, the MIC [13] was 2 µM (≈ 3.13 µg/mL), the MIC [14] was 4 µM and the Activity [15] was “Active”. The “fold change (FC)” value [16] was 4 - 8, the MIC [17] was 16 µM and the MIC [18] was 4 µM. The MIC [19] was 2 µM, the MIC [20] was 4 µM and the Ratio [21] was 2 - 4. For the same molecule, the MHC10 [22] was 111 µM, the MIC [23] was 4 µM and the “fractional inhibitory concentration index (FICI)” value [24] was 0.3125. For the same molecule, the Ratio [25] was 2 - 8, the Activity [26] was “Active” and the Activity [27] was “Non-Toxic”. The Activity [28] was “Active”, the Ratio [29] was 2 - 4 and the “fractional inhibitory concentration index (FICI)” value [30] was 0.3125. It also gave an MIC [31] of 16 µM, an MIC [32] of 8 µM and an MIC [33] of 4 µM (≈ 6.26 µg/mL). For the same molecule, the MIC [34] was 4 µM (≈ 6.26 µg/mL), the Ratio [35] was 2 - 4 and the Activity [36] was “Active”. For the same molecule, the MIC [37] was 4 µM (≈ 6.26 µg/mL), the MIC [38] was 4 µM (≈ 6.26 µg/mL) and the Activity [39] was “Active”. For the same molecule, the MIC [40] was 4 µM, the Activity [41] was “Active” and the MIC [42] was 4 µM (≈ 6.26 µg/mL). The Ratio [43] was 2 - 4 and the Activity [44] was “Active”.
With `CC[C@H](C)[C@H](NC(=O)[C@H](CC(C)C)NC(=O)[C@H](CCCCN)NC(=O)[C@@H](NC(=O)[C@@H](NC(=O)[C@H](CCCNC(=N)N)NC(=O)[C@@H](N)CCCCN)[C@@H](C)CC)C(C)C)C(=O)N[C@@H](CC(C)C)C(=O)N[C@@H](CCCCN)C(=O)N[C@@H](Cc1c[nH]c2ccccc12)C(=O)N[C@@H](CC(C)C)C(=O)N[C@@H](CCCNC(=N)N)C(N)=O` the Ratio [1] was 2 - 4, the MIC [2] was 8 µM (≈ 12.5 µg/mL) and the Activity [3] was “Non-Toxic”. The Ratio [4] was 2 - 4, the Ratio [5] was 2 - 4 and the MIC [6] was 4 µM (≈ 6.26 µg/mL). The Activity [7] was “Active”, the KSV [8] was 1.12 M⁻¹ and the Ratio [9] was 2 - 4. The MIC [10] was 8 µM (≈ 12.5 µg/mL), the Ratio [11] was 2 - 4 and the Activity [12] was “Active”. The MIC [13] was 8 µM (≈ 12.5 µg/mL), the MIC [14] was 2 µM and the Activity [15] was “Active”. For the same molecule, the “fold change (FC)” value [16] was 4 - 8, the MIC [17] was 8 µM and the MIC [18] was 8 µM. For the same molecule, the MIC [19] was 2 µM, the MIC [20] was 8 µM and the Ratio [21] was 2 - 4. For the same molecule, the MHC10 [22] was 25 µM, the MIC [23] was 8 µM and the “fractional inhibitory concentration index (FICI)” value [24] was 0.3125. The Ratio [25] was 2 - 8, the Activity [26] was “Active” and the Activity [27] was “Non-Toxic”. For the same molecule, the Activity [28] was “Active”, the Ratio [29] was 2 - 4 and the “fractional inhibitory concentration index (FICI)” value [30] was 0.375. For the same molecule, the MIC [31] was 8 µM, the MIC [32] was 8 µM and the MIC [33] was 8 µM (≈ 12.5 µg/mL). For the same molecule, the MIC [34] was 8 µM (≈ 12.5 µg/mL), the Ratio [35] was 2 - 4 and the Activity [36] was “Active”. For the same molecule, the MIC [37] was 4 µM (≈ 6.26 µg/mL), the MIC [38] was 4 µM (≈ 6.26 µg/mL) and the Activity [39] was “Active”. The MIC [40] was 8 µM, the Activity [41] was “Active” and the MIC [42] was 4 µM (≈ 6.26 µg/mL). The Ratio [43] was 2 - 4 and the Activity [44] was “Active”.
